Test results reported in patent US9499550B2 (BRISTOL-MYERS SQUIBB COMPANY, priority 2012, dated 2016).
Read-outs that look alike come from different tables or passages of the source.

What was measured:
[1] = tested on: HCV genotype 1a (H77 strain) replicon in HUH-7 cells; assay: HCV replicon luciferase reporter assay, genotype 1a; assay type: cell-based; settings: Hepatitis C virus, Huh-7, 72 h, HCV genotype 1a replicon luciferase, 3 days incubation, read-out: LE_1a (EC50, range)
Method in brief: (§1)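 Replicon inhibition for both genotypes was measured as Renilla luciferase signal (EnduRen, 7.5 μM final, 2 h) after 3-day, 37° C exposure of replicon-bearing HUH-7 cells in 4% FCS DMEM, 0.5% DMSO. The 1b construct carries S1179I; the 1a H77 construct carries P1496L and S2204I. Twenty-point, 3-fold dilutions were fitted four-parametrically for EC50, and CC50 was taken from multiplexed Cell Titer-Blue.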

[2] = tested on: HCV genotype 1b (Con1) replicon in HUH-7 cells; assay: HCV replicon luciferase reporter assay, genotype 1b; assay type: cell-based; settings: Hepatitis C virus, Huh-7, 72 h, HCV genotype 1b replicon luciferase, 3 days incubation, read-out: LE_1b (EC50, range)
Method in brief: as §1

`COc1ccc2nc(O[C@@H]3C[C@H]4C(=O)N[C@]5(C(=O)NS(=O)(=O)C6(CF)CC6)C[C@H]5/C=C\CC[C@@H](C)C[C@@H](C)[C@H](NC(=O)OC(C)(C)C(F)(F)F)C(=O)N4C3)c(C)nc2c1` [Compound 4107] was tested, and the EC50 ([1]; GETYPE1A) was less than 5.46 nM and the EC50 ([2]; GETYPE1B) was less than 5.46 nM.
Work on `COc1ccc2nc(C)c(O[C@@H]3C[C@H]4C(=O)N[C@]5(C(=O)NS(=O)(=O)C6(CF)CC6)C[C@H]5/C=C\CC[C@@H](C)C[C@@H](C)[C@H](NC(=O)OC(C)(C)C(F)(F)F)C(=O)N4C3)nc2c1` [Compound 4108] yielded an EC50 ([1]; GETYPE1A) of less than 5.46 nM and an EC50 ([2]; GETYPE1B) of less than 5.46 nM.
`COc1ccc2nc(C)c(O[C@@H]3C[C@H]4C(=O)N[C@]5(C(=O)NS(=O)(=O)C6(C)CC6)C[C@H]5/C=C\CC[C@@H](C)C[C@@H](C)[C@H](NC(=O)OC(C)(C)C)C(=O)N4C3)nc2c1` [Compound 4109, tert-butyl (2R,6S,7R,9R,13aS,14aR,16aS,Z)-2-(7-methoxy-3-methylquinoxalin-2-yloxy)-7,9-dimethyl-14a-(1-methylcyclopropylsulfonylcarbamoyl)-5,16-dioxo-1,2,3,5,6,7,8,9,10,11,13a,14,14a,15,16,16a-hexadecahydrocyclopropa[e]pyrrolo[1,2-a][1,4]diazacyclopentadecin-6-ylcarbamate] gave an EC50 [1] of less than 5.46 nM and an EC50 [2] of less than 5.46 nM.
`COc1cnc(O[C@@H]2C[C@H]3C(=O)N[C@]4(C(=O)NS(=O)(=O)C5(CO)CC5)C[C@H]4/C=C\CC[C@@H](C)C[C@@H](C)[C@H](NC(=O)OC(C)(C)C(F)(F)F)C(=O)N3C2)c2ccccc12` [Compound 4110] showed an EC50 ([1]; GETYPE1A) of 4.82 to 103 nM and an EC50 ([2]; GETYPE1B) of 4.82 to 103 nM.
`COc1cnc(O[C@@H]2C[C@H]3C(=O)N[C@]4(C(=O)NS(=O)(=O)C5(CO)CC5)C[C@H]4/C=C\CC[C@H](C)C[C@@H](C)[C@H](NC(=O)OC(C)(C)C(F)(F)F)C(=O)N3C2)c2ccccc12` [Compound 4111] was tested, and the EC50 ([1]; GETYPE1A) was greater than 87.4 nM and the EC50 ([2]; GETYPE1B) was 4.82 to 103 nM.
Work on `COc1cnc(O[C@@H]2C[C@H]3C(=O)N[C@]4(C(=O)NS(=O)(=O)C5(CO)CC5)C[C@H]4/C=C\CC[C@@H](C)C[C@@H](C)[C@H](N)C(=O)N3C2)c2ccccc12` [Compound 4112, (2R,6S,7R,9R,13aS,14aR,16aS,Z)-6-amino-N-(1-(hydroxymethyl)cyclopropylsulfonyl)-2-(4-methoxyisoquinolin-1-yloxy)-7,9-dimethyl-5,16-dioxo-1,2,3,5,6,7,8,9,10,11,13a,14,14a,15,16,16a-hexadecahydrocyclopropa[e]pyrrolo[1,2-a][1,4]diazacyclopentadecine-14a-carboxamide] yielded an EC50 [1] greater than 87.4 nM and an EC50 [2] greater than 87.4 nM.
With `COc1cnc(O[C@@H]2C[C@H]3C(=O)N[C@]4(C(=O)NS(=O)(=O)C5(CO)CC5)C[C@H]4/C=C\CC[C@H](C)C[C@@H](C)[C@H](N)C(=O)N3C2)c2ccccc12` [Compound 4113, (2R,6S,7R,9S,13aS,14aR,16aS,Z)-6-amino-N-(1-(hydroxymethyl)cyclopropylsulfonyl)-2-(4-methoxyisoquinolin-1-yloxy)-7,9-dimethyl-5,16-dioxo-1,2,3,5,6,7,8,9,10,11,13a,14,14a,15,16,16a-hexadecahydrocyclopropa[e]pyrrolo[1,2-a][1,4]diazacyclopentadecine-14a-carboxamide] the EC50 [1] was greater than 87.4 nM and the EC50 [2] was greater than 87.4 nM.
`COc1cnc(O[C@@H]2C[C@H]3C(=O)N[C@]4(C(=O)NS(=O)(=O)C5(CO)CC5)C[C@H]4/C=C\CC[C@@H](C)C[C@@H](C)[C@H](NC(=O)OC(C)(C)C)C(=O)N3C2)c2ccccc12` [Compound 4114, tert-butyl (2R,6S,7R,9R,13aS,14aR,16aS,Z)-14a-(1-(hydroxymethyl)cyclopropylsulfonylcarbamoyl)-2-(4-methoxyisoquinolin-1-yloxy)-7,9-dimethyl-5,16-dioxo-1,2,3,5,6,7,8,9,10,11,13a,14,14a,15,16,16a-hexadecahydrocyclopropa[e]pyrrolo[1,2-a][1,4]diazacyclopentadecin-6-ylcarbamate] showed an EC50 [1] of 4.82 to 103 nM and an EC50 [2] of 4.82 to 103 nM.
`COc1cnc(O[C@@H]2C[C@H]3C(=O)N[C@]4(C(=O)NS(=O)(=O)C5(CO)CC5)C[C@H]4/C=C\CC[C@H](C)C[C@@H](C)[C@H](NC(=O)OC(C)(C)C)C(=O)N3C2)c2ccccc12` [Compound 4115, tert-butyl (2R,6S,7R,9S,13aS,14aR,16aS,Z)-14a-(1-(hydroxymethyl)cyclopropylsulfonylcarbamoyl)-2-(4-methoxyisoquinolin-1-yloxy)-7,9-dimethyl-5,16-dioxo-1,2,3,5,6,7,8,9,10,11,13a,14,14a,15,16,16a-hexadecahydrocyclopropa[e]pyrrolo[1,2-a][1,4]diazacyclopentadecin-6-ylcarbamate] showed an EC50 [1] of less than 5.46 nM and an EC50 [2] of less than 5.46 nM.
Work on `COc1cc2c(OC)cnc(O[C@@H]3C[C@H]4C(=O)N[C@]5(C(=O)NS(=O)(=O)C6(CF)CC6)C[C@H]5/C=C\CC[C@@H](C)C[C@@H](C)[C@H](NC(=O)C(C)(C)C)C(=O)N4C3)c2cc1F` [Compound 4116, (2R,6S,7R,9R,13aS,14aR,16aS,Z)-2-(7-fluoro-4,6-dimethoxyisoquinolin-1-yloxy)-N-(1-(fluoromethyl)cyclopropylsulfonyl)-7,9-dimethyl-5,16-dioxo-6-pivalamido-1,2,3,5,6,7,8,9,10,11,13a,14,14a,15,16,16a-hexadecahydrocyclopropa[e]pyrrolo[1,2-a][1,4]diazacyclopentadecine-14a-carboxamide] yielded an EC50 [1] of less than 5.46 nM and an EC50 [2] of less than 5.46 nM.
Work on `COc1cc2c(OC)cnc(O[C@@H]3C[C@H]4C(=O)N[C@]5(C(=O)NS(=O)(=O)C6(CF)CC6)C[C@H]5/C=C\CC[C@@H](C)C[C@@H](C)[C@H](NC(=O)c5c(F)cc(F)cc5F)C(=O)N4C3)c2cc1F` [Compound 4117, (2R,6S,7R,9R,13aS,14aR,16aS,Z)-2-(7-fluoro-4,6-dimethoxyisoquinolin-1-yloxy)-N-(1-(fluoromethyl)cyclopropylsulfonyl)-7,9-dimethyl-5,16-dioxo-6-(2,4,6-trifluorobenzamido)-1,2,3,5,6,7,8,9,10,11,13a,14,14a,15,16,16a-hexadecahydrocyclopropa[e]pyrrolo[1,2-a][1,4]diazacyclopentadecine-14a-carboxamide] yielded an EC50 [1] of less than 5.46 nM and an EC50 [2] of less than 5.46 nM.
`COc1cc2c(OC)cnc(O[C@@H]3C[C@H]4C(=O)N[C@]5(C(=O)NS(=O)(=O)C6(CF)CC6)C[C@H]5/C=C\CC[C@@H](C)C[C@@H](C)[C@H](NC(=O)c5ccc(F)cc5F)C(=O)N4C3)c2cc1F` [Compound 4118, (2R,6S,7R,9R,13aS,14aR,16aS,Z)-6-(2,4-difluorobenzamido)-2-(7-fluoro-4,6-dimethoxyisoquinolin-1-yloxy)-N-(1-(fluoromethyl)cyclopropylsulfonyl)-7,9-dimethyl-5,16-dioxo-1,2,3,5,6,7,8,9,10,11,13a,14,14a,15,16,16a-hexadecahydrocyclopropa[e]pyrrolo[1,2-a][1,4]diazacyclopentadecine-14a-carboxamide] was tested, and the EC50 [1] was less than 5.46 nM and the EC50 [2] was less than 5.46 nM.
For `COc1cc2c(OC)cnc(O[C@@H]3C[C@H]4C(=O)N[C@]5(C(=O)NS(=O)(=O)C6(CF)CC6)C[C@H]5/C=C\CC[C@@H](C)C[C@@H](C)[C@H](NC(=O)C5(C(F)(F)F)CC5)C(=O)N4C3)c2cc1F` [Compound 4119, (2R,6S,7R,9R,13aS,14aR,16aS,Z)-2-(7-fluoro-4,6-dimethoxyisoquinolin-1-yloxy)-N-(1-(fluoromethyl)cyclopropylsulfonyl)-7,9-dimethyl-5,16-dioxo-6-(1-(trifluoromethyl)cyclopropanecarboxamido)-1,2,3,5,6,7,8,9,10,11,13a,14,14a,15,16,16a-hexadecahydrocyclopropa[e]pyrrolo[1,2-a][1,4]diazacyclopentadecine-14a-carboxamide], the EC50 [1] was less than 5.46 nM and the EC50 [2] was less than 5.46 nM.
Work on `COc1ccc2c(O[C@@H]3C[C@H]4C(=O)N[C@]5(C(=O)NS(=O)(=O)C6(CF)CC6)C[C@H]5/C=C\CC[C@@H](C)C[C@@H](C)[C@H](NC(=O)OC(C)(C)C(F)(F)F)C(=O)N4C3)ncc(N3CCOCC3)c2c1` [Compound 4120] yielded an EC50 [1] of less than 5.46 nM and an EC50 [2] of less than 5.46 nM.
Work on `COc1cc2c(OC)cnc(O[C@@H]3C[C@H]4C(=O)N[C@]5(C(=O)NS(=O)(=O)C6(CO)CC6)C[C@H]5/C=C\CC[C@@H](C)C[C@@H](C)[C@H](NC(=O)OC(C)(C)C)C(=O)N4C3)c2cc1F` [Compound 4122, tert-butyl (2R,6S,7R,9R,13aS,14aR,16aS,Z)-2-(7-fluoro-4,6-dimethoxyisoquinolin-1-yloxy)-14a-(1-(hydroxymethyl)cyclopropylsulfonylcarbamoyl)-7,9-dimethyl-5,16-dioxo-1,2,3,5,6,7,8,9,10,11,13a,14,14a,15,16,16a-hexadecahydrocyclopropa[e]pyrrolo[1,2-a][1,4]diazacyclopentadecin-6-ylcarbamate] yielded an EC50 [1] of less than 5.46 nM and an EC50 [2] of less than 5.46 nM.
In the case of `COc1cc2c(OC)cnc(O[C@@H]3C[C@H]4C(=O)N[C@]5(C(=O)NS(=O)(=O)C6(CO)CC6)C[C@H]5/C=C\CC[C@H](C)C[C@@H](C)[C@H](NC(=O)OC(C)(C)C)C(=O)N4C3)c2cc1F` [Compound 4123, tert-butyl (2R,6S,7R,9S,13aS,14aR,16aS,Z)-2-(7-fluoro-4,6-dimethoxyisoquinolin-1-yloxy)-14a-(1-(hydroxymethyl)cyclopropylsulfonylcarbamoyl)-7,9-dimethyl-5,16-dioxo-1,2,3,5,6,7,8,9,10,11,13a,14,14a,15,16,16a-hexadecahydrocyclopropa[e]pyrrolo[1,2-a][1,4]diazacyclopentadecin-6-ylcarbamate], the EC50 [1] is reported as 4.82 to 103 nM and the EC50 [2] is reported as 4.82 to 103 nM.
